Data reported in patent US20200317642A1, “AMINE-SUBSTITUTED HETEROCYCLIC COMPOUNDS AS EHMT2 INHIBITORS AND DERIVATIVES THEREOF” (Epizyme, Inc., priority 2017, published 2020).

Columns and labels:
human EHMT2 913-1193 = target: T1, human EHMT2 913-1193 (Homo sapiens, UniProt Q96KQ7); assay: EHMT2 enzyme assay on histone peptide substrate; assay type: biochemical; conditions: Table 3; histone H3 1-15 peptide, balanced conditions; read-out: EHMT2 PEP (IC50 μM)
T1 construct: recombinant purified human EHMT2 913-1193, Viva; purchased Viva
T1 sequence (Q96KQ7 913-1193): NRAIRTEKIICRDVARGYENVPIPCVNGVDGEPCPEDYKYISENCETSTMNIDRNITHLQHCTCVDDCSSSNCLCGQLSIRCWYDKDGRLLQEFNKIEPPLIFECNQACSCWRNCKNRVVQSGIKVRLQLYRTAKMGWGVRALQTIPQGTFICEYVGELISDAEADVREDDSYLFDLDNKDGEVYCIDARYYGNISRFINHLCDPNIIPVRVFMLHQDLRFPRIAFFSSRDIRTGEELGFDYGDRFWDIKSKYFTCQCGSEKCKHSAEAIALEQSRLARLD
How it was run: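 Human EHMT2 913-1193 (0.031 nM) was preincubated 30 min with compound (10-point 3-fold series, top 50 μM final, 2% DMSO) in Bicine pH 7.5 buffer. Reaction ran 60 min at room temperature with ³H-SAM and biotinylated H3 1-15 peptide, both at Km. Methylated peptide was captured on streptavidin Flashplates; 1 mM SAH defined 100% inhibition.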

[1] = system: H3K9me2 in MDA-MB-231 cells; assay: MDA-MB-231 H3K9me2 in-cell western assay (EHMT2 ICW); assay type: cell-based; conditions: Homo sapiens, Table 3, read-out: EHMT2 ICW (IC50 μM)
How it was run: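 MDA-MB-231 cells (3,000/well) were exposed to compound for 48 h at 37 °C, 30 min at room temperature, then a further 48 h. Fixed cells were immunostained for H3K9me2 with DRAQ5 co-stain and read by infrared imaging at 700/800 nm. Inhibition was set against DMSO and UNC0638 wells; IC50 from four-parameter fit (top 100%, bottom 0%), triplicates.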

## CNc1cc(C)nc(Nc2ccc(Br)c(CNCCN3CCCC3)c2)n1 [Compound 1, 2-N-[4-bromo-3-([[2-(pyrrolidin-1-yl)ethyl]amino]methyl)phenyl]-4-N,6-dimethylpyrimidine-2,4-diamine]
Human EHMT2 913-1193
  IC50: 0.1 to 1 µM
[1]
  IC50: 1 to 10 µM
